These results are taken from ChEMBL document CHEMBL1201862, “PubChem BioAssay data set” (2004).

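The compound was tested at five concentrations on cells cultured in 96-well plates, with a 48-hour exposure period. Abbreviation: GI50, concentration required for 50% inhibition of growth.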 Active and inactive are the calls of the source. No stated cut-off is given here; in the data, active = GI50 up to about 1.1 µM and inactive = higher.

What all share (assay): DTP human tumour cell line panel, 48 h
Experiment [1] has as its system MDA-N.
Experiment [2] relates to HCT-15.
Experiment [3] has as its system SW-620.
Experiment [4] has as its system TK-10.
Experiment [5] relates to 786-0.
Experiment [6] has as its system SN12C.
In experiment [7] the test system is NCI-H460.
Experiment [8] concerns OVCAR-3.
The subject of experiment [9] is SK-MEL-5.
Experiment [10] deals with HOP-62.
Experiment [11] deals with CCRF-CEM.
Experiment [12] deals with SNB-19.
Experiment [13] has as its system Hs-578T.
Experiment [14] deals with EKVX.
The test system of experiment [15] is UO-31.
Experiment [16] has as its system NCI-H23.
In experiment [17] the test system is Malme-3M.
The subject of experiment [18] is RXF 393.
In experiment [19] the test system is T47D.

Usually GI50 stands for the concentration at which growth is held to half of that of the control. Take `Clc1ccc(-c2nnc(-c3cccc4ccccc34)o2)cc1Cl`: the GI50 in experiment [1] was > 100 µM (inactive); in experiment [2], over 100 µM; in [3], > 100 µM (inactive); in [4] it was > 100 µM (inactive); in experiment [5], > 100 µM (inactive); in experiment [6] it was > 100 µM (inactive). Also, the GI50 in experiment [7], in experiment [8], in experiment [9], in experiment [10], in experiment [11] and in experiment [12] was > 100 µM (inactive) in each case. Moreover, the GI50 in experiment [13], in [14], in experiment [15], in experiment [16], in experiment [17] and in experiment [18] was > 100 µM (inactive) in each case. Moreover, in [19], the GI50 was > 100 µM (inactive).
With `OC(c1cc(-c2ccc(Cl)cc2)nc2ccccc12)C1CCCCN1` (centres undefined), the GI50 was 1.95 µM (inactive) in experiment [1]; 2.46 µM in [2]; 1.88 µM (inactive) in [3]; 4.32 µM (inactive) in experiment [4]; 1.93 µM (inactive) in [5]; 1.75 µM (inactive) in [6]. In addition, the GI50 in experiment [7] is 2.08 µM (inactive); in experiment [8] it was 2.07 µM (inactive); in experiment [9], 2.24 µM (inactive); in experiment [10], 1.61 µM (inactive); in [11], 0.498 µM (active); in experiment [12], 3.3 µM (inactive). For the same compound, the GI50 in experiment [13] is 1.99 µM (inactive); in experiment [14], 2.14 µM (inactive); in experiment [15], 1.15 µM (inactive); in experiment [16], 2.15 µM (inactive); in experiment [17], 0.873 µM (active); in [18], 0.368 µM (active). Also, the GI50 in experiment [19] was 1.77 µM (inactive).
Take `O=c1[nH]cnc2cccc(Cl)c12`: the GI50 in experiment [1] was > 100 µM (inactive); in experiment [2], over 100 µM; in experiment [3] it was > 100 µM (inactive); in experiment [4], > 100 µM (inactive); in experiment [5] it was > 100 µM (inactive); in experiment [6], > 100 µM (inactive). Further, the GI50 in experiment [7], in experiment [8], in experiment [9], in experiment [10], in experiment [11] and in experiment [12] was > 100 µM (inactive) throughout. Further, the GI50 in experiment [13], in experiment [14], in experiment [15], in experiment [16], in experiment [17] and in experiment [18] was > 100 µM (inactive) each time. Besides, the GI50 in [19] is > 100 µM (inactive).
For `NS(=O)(=O)c1ccc(NNc2c3ccccc3nc3ccccc23)cc1`, the GI50 in experiment [1] was 12.9 µM (inactive); in experiment [2], 10 µM; in experiment [3], 10.9 µM (inactive); in experiment [4], 18.8 µM (inactive); in experiment [5] it was 12.6 µM (inactive); in experiment [6], 14 µM (inactive). For the same compound, the GI50 was 12.2 µM (inactive) in experiment [7]; 10.2 µM (inactive) in experiment [8]; 12.7 µM (inactive) in experiment [9]; 12.2 µM (inactive) in [10]; 6.28 µM (inactive) in experiment [11]; 14.7 µM (inactive) in [12]. Also, the GI50 in [13] was 14.5 µM (inactive); in [14], 12.5 µM (inactive); in experiment [15] it was 10.9 µM (inactive); in experiment [16], 13.6 µM (inactive); in experiment [17], 11.2 µM (inactive); in experiment [18], 13.2 µM (inactive). Further, the GI50 in experiment [19] is 7.52 µM (inactive).
As for `C=C1C(=O)OC2/C=C(/CO)C3(O)CC(O)C(C)(CC(OC(=O)/C(C)=C/C)C12)O3` (centres undefined), the GI50 was 10.2 µM (inactive) in experiment [1]; 7.57 µM in experiment [2]; 3.33 µM (inactive) in experiment [3]; 11.9 µM (inactive) in [4]; 10.1 µM (inactive) in experiment [5]; 15.7 µM (inactive) in experiment [6]. The GI50 in experiment [7] was 14.9 µM (inactive); in experiment [8], 10.2 µM (inactive); in [9] it was 11.1 µM (inactive); in experiment [10] it was 49.3 µM (inactive); in [11] it was 2.1 µM (inactive); in experiment [12] it was 36.5 µM (inactive). The GI50 in [13] is 53.5 µM (inactive); in [14], 18.8 µM (inactive); in experiment [15], 20.4 µM (inactive); in experiment [16], 13.6 µM (inactive); in experiment [17], 10.2 µM (inactive); in experiment [18], 2.81 µM (inactive). For the same compound, in [19], the GI50 was 10.9 µM (inactive).
Take `COC(C(=O)C(O)C(C)O)C1CC2C=C3C=C(OC4CC(OC5CC(O)C(OC)C(C)O5)C(OC(C)=O)C(C)O4)C(C)C(O)=C3C(O)=C2C(=O)C1OC1CC(OC2CC(OC3CC(C)(O)C(OC(=O)C(C)C)C(C)O3)C(O)C(C)O2)C(O)C(C)O1` (centres undefined): the GI50 was < 0.01 µM (active) in experiment [1]; under 0.01 µM in [2]; < 0.01 µM (active) in [3]; < 0.01 µM (active) in experiment [4]; < 0.01 µM (active) in [5]; < 0.01 µM (active) in experiment [6]. Also, the GI50 in experiment [7], in experiment [8], in experiment [9], in experiment [10], in experiment [11] and in experiment [12] was < 0.01 µM (active) throughout. Besides, the GI50 in [13], in experiment [14], in experiment [15], in experiment [16], in experiment [17] and in [18] was < 0.01 µM (active) in each case. Further, the GI50 in experiment [19] was < 0.01 µM (active).
As for `C=C1CC2(CC(c3ccccc3C)OC(c3ccccc3C)C2)OC1=O` (centres undefined), the GI50 in experiment [1] was 1.75 µM (inactive); in [2], 1.95 µM; in experiment [3], 1.73 µM (inactive); in experiment [4] it was 1.74 µM (inactive); in experiment [5], 1.96 µM (inactive); in [6] it was 1.97 µM (inactive). In addition, the GI50 was 2.96 µM (inactive) in experiment [7]; 1.78 µM (inactive) in experiment [8]; 1.86 µM (inactive) in [9]; 10.7 µM (inactive) in experiment [10]; 2.04 µM (inactive) in experiment [11]; 16.3 µM (inactive) in experiment [12]. For the same compound, the GI50 was 2.24 µM (inactive) in experiment [13]; 16.1 µM (inactive) in experiment [14]; 4.08 µM (inactive) in experiment [15]; 1.96 µM (inactive) in [16]; 1.71 µM (inactive) in [17]; 2.29 µM (inactive) in experiment [18]. The GI50 in experiment [19] was 1.72 µM (inactive).
`NC(=O)c1ncn(C2C=CC(CP(=O)(O)O)C2)c1N` (centres undefined): the GI50 in experiment [1] was > 100 µM (inactive); in experiment [2], over 100 µM; in experiment [3] it was > 100 µM (inactive); in experiment [4], > 100 µM (inactive); in experiment [5], > 100 µM (inactive); in experiment [6], > 100 µM (inactive). Further, the GI50 in experiment [7], in [8], in experiment [9], in [10], in experiment [11] and in experiment [12] was > 100 µM (inactive) throughout. In addition, the GI50 in experiment [13], in experiment [14], in experiment [15], in experiment [16], in experiment [17] and in [18] was > 100 µM (inactive) in each case. Also, the GI50 in experiment [19] is > 100 µM (inactive).
Turning to `Cc1ccccc1C(=O)NC(O)(C(F)(F)F)C(F)(F)F`, the GI50 is > 100 µM (inactive) in [1]; over 100 µM in [2]; > 100 µM (inactive) in experiment [3]; > 100 µM (inactive) in experiment [4]; > 100 µM (inactive) in experiment [5]; > 100 µM (inactive) in experiment [6]. Also, the GI50 is 84.9 µM (inactive) in [7]; 35.1 µM (inactive) in experiment [8]; 94 µM (inactive) in experiment [9]; > 100 µM (inactive) in experiment [10]; 58.3 µM (inactive) in experiment [11]; > 100 µM (inactive) in [12]. Also, the GI50 in [13] was 22.5 µM (inactive); in [14], > 100 µM (inactive); in experiment [15], 34.8 µM (inactive); in [16], 78.2 µM (inactive); in experiment [17] it was 28.2 µM (inactive); in experiment [18], > 100 µM (inactive). Also, in experiment [19], the GI50 was 65.2 µM (inactive).
Take `N=c1sc(N2CCOCC2)nn1CC(=O)c1ccccc1`: the GI50 is > 100 µM (inactive) in experiment [1]; over 100 µM in experiment [2]; > 100 µM (inactive) in experiment [3]; > 100 µM (inactive) in experiment [4]; > 100 µM (inactive) in experiment [5]; > 100 µM (inactive) in [6]. The GI50 in experiment [7] is > 100 µM (inactive); in experiment [8], 66.5 µM (inactive); in experiment [9], > 100 µM (inactive); in experiment [10], > 100 µM (inactive); in [11] it was > 100 µM (inactive); in experiment [12] it was > 100 µM (inactive). The GI50 in [13], in experiment [14], in experiment [15], in experiment [16], in experiment [17] and in experiment [18] was > 100 µM (inactive) each time. In experiment [19], the GI50 was 76.4 µM (inactive).
Take `CCc1nc(N)nc(N)c1-c1ccc(N(C)Cc2ccccc2)c([N+](=O)[O-])c1`: the GI50 in experiment [1] is 0.0243 µM (active); in experiment [2], under 0.01 µM; in experiment [3] it was 0.0155 µM (active); in experiment [4], 7.13 µM (inactive); in experiment [5], 0.0231 µM (active); in [6], 1.34 µM (inactive). For the same compound, the 50% growth inhibitory concentration (GI50) was < 0.01 µM (active) in experiment [7]; 0.697 µM (active) in experiment [8]; 0.022 µM (active) in experiment [9]; 0.13 µM (active) in experiment [10]; 0.0237 µM (active) in experiment [11]; 0.745 µM (active) in experiment [12]. For the same compound, the GI50 in experiment [13] is 10.2 µM (inactive); in [14], 1.16 µM (inactive); in [15], 0.458 µM (active); in experiment [16] it was 0.0708 µM (active); in [17], 2.22 µM (inactive); in [18] it was 3.61 µM (inactive). Further, the GI50 in experiment [19] was 1.71 µM (inactive).
